Measurements: ChEMBL document CHEMBL1201862, “PubChem BioAssay data set” (2004)
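Protocol summary: plate cells (96-well), add compound at 5 concentrations, incubate 48 h, interpolate endpoints linearly. Abbreviation: GI50, concentration required for 50% inhibition of growth.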 The source made the active and inactive calls. Cut-off read from the data, not from the text of the source: active = GI50 up to about 1.1 µM and inactive = higher.

Tests used:
Experiment in all cases: inhibition of tumour cell growth, NCI panel, 48 h
786-0 = test system: 786-0
A549 = test system: A549
ACHN = test system: ACHN
CCRF-CEM = test system: CCRF-CEM
DU-145 = test system: DU-145
HOP-18 = test system: HOP-18
HT-29 = test system: HT-29
KM-20L2 = test system: KM-20L2
LOX IMVI = test system: LOX IMVI
MDA-MB-231 = test system: MDA-MB-231
MDA-N = test system: MDA-N
NCI-H226 = test system: NCI-H226
NCI-H23 = test system: NCI-H23
SK-MEL-2 = test system: SK-MEL-2
SK-MEL-5 = test system: SK-MEL-5
SK-OV-3 = test system: SK-OV-3
SNB-19 = test system: SNB-19
SNB-75 = test system: SNB-75
TK-10 = test system: TK-10
U-251 = test system: U-251

Measured: GI50

Cc1ccc2nc3c(C)c(Cl)c(=O)cc-3sc2c1
inactive: 786-0 49.7 µM | A549 16.7 µM | ACHN 18.5 µM | CCRF-CEM 3.63 µM | DU-145 44 µM | HOP-18 19.7 µM | HT-29 60.5 µM | KM-20L2 78 µM | LOX IMVI 13.9 µM | MDA-MB-231 3.35 µM | MDA-N 16.9 µM | NCI-H226 5.06 µM | NCI-H23 13.2 µM | SK-MEL-2 17.2 µM | SK-MEL-5 13.6 µM | SK-OV-3 > 100 µM | SNB-19 24 µM | SNB-75 14.5 µM | TK-10 56.8 µM | U-251 12.7 µM

Cc1ccc2c(ccc(/C=C/c3ccc(O)c4ncccc34)[n+]2C)c1
inactive: 786-0 5.57 µM | A549 15.1 µM | ACHN 10 µM | CCRF-CEM 2.42 µM | DU-145 > 32.1 µM | HOP-18 13.1 µM | HT-29 12.2 µM | KM-20L2 4.85 µM | LOX IMVI 2.96 µM | MDA-MB-231 > 33.2 µM | MDA-N > 24 µM | NCI-H226 24.8 µM | NCI-H23 11 µM | SK-MEL-2 17.3 µM | SK-MEL-5 14.1 µM | SK-OV-3 15.4 µM | SNB-19 12.9 µM | SNB-75 19.5 µM | TK-10 15.6 µM | U-251 6.62 µM

N#CC12Cc3cc4c(cc3-c3cccc(c31)CCN2C(=O)c1ccccc1)OCO4 (stereo unspecified)
inactive: 786-0 > 10 µM | A549 > 100 µM | ACHN > 100 µM | CCRF-CEM > 100 µM | HOP-18 > 100 µM | HT-29 > 100 µM | KM-20L2 > 100 µM | LOX IMVI > 100 µM | NCI-H226 > 100 µM | NCI-H23 > 100 µM | SK-MEL-2 > 100 µM | SK-MEL-5 > 100 µM | SK-OV-3 > 100 µM | SNB-19 68.1 µM | SNB-75 21.6 µM | TK-10 > 100 µM | U-251 > 100 µM

CCOC(=O)C1=C(Nc2cccc3ccccc23)OC/C1=N\NC(=O)c1ccccc1O
inactive: 786-0 21 µM | A549 16.4 µM | ACHN 8.63 µM | CCRF-CEM 4.86 µM | HOP-18 11.1 µM | HT-29 29.7 µM | KM-20L2 29 µM | LOX IMVI 14.3 µM | NCI-H226 22.3 µM | NCI-H23 4.09 µM | SK-MEL-2 29.8 µM | SK-MEL-5 12.9 µM | SK-OV-3 26 µM | SNB-19 22.1 µM | SNB-75 3.39 µM | TK-10 21.1 µM | U-251 23.7 µM

Cc1[nH]c(=O)nc(N/N=C/c2ccc(Cl)cc2)c1C(=O)Nc1ccc(Cl)cc1
inactive: 786-0 19.4 µM | A549 27 µM | ACHN 54.8 µM | CCRF-CEM > 66.7 µM | DU-145 > 100 µM | HOP-18 1.22 µM | HT-29 24.1 µM | KM-20L2 > 100 µM | LOX IMVI 14.9 µM | MDA-MB-231 9.2 µM | MDA-N 31.6 µM | NCI-H226 > 100 µM | NCI-H23 30.7 µM | SK-MEL-2 76.6 µM | SK-MEL-5 18 µM | SK-OV-3 12.2 µM | SNB-19 7.41 µM | SNB-75 6.05 µM | TK-10 27.6 µM | U-251 14.5 µM

Cc1ccccc1C1=[N+]([O-])c2ccccc2C1=O
inactive: 786-0 17.4 µM | A549 > 10 µM | ACHN 16.9 µM | CCRF-CEM 18.5 µM | HOP-18 19.6 µM | HT-29 14.5 µM | KM-20L2 17.9 µM | LOX IMVI 18.7 µM | NCI-H226 16.3 µM | NCI-H23 20.3 µM | SK-MEL-2 3.22 µM | SK-MEL-5 16.8 µM | SK-OV-3 > 100 µM | SNB-19 46.1 µM | SNB-75 20.2 µM | TK-10 18.3 µM | U-251 16.9 µM
